Values after ≈ are worked out from the molar mass of the structure shown.
Legend:
[1] = Cytotoxicity against African green monkey Vero cells assessed as cell viability measured after 72 hrs by MTT assay; assay type: toxicity, cell-based; conditions: chlorocebus sabaeus
Zika virus = test: Anti-viral activity against ZIKV Argentine strain INEVH116141 infected in african green monkey Vero cells at 0.1 MOI assessed as reduction in virus yield measured after 48 hrs by virus reduction assay; assay type: functional, organism-based
[2] = Selectivity index, ratio of CC50 for cytotoxicity against African green monkey Vero cells to EC50 for anti-viral activity against ZIKV Argentine strain INEVH116141; assay type: toxicity, cell-based; conditions: read-out: Selectivity Index
dengue virus type 2 = test: Anti-viral activity against DENV-2 Thailand/16681/1984 strain infected in african green monkey Vero cells at 0.1 MOI assessed as reduction in virus yield measured after 48 hrs by virus reduction assay; assay type: functional, organism-based; conditions: Thailand/16681/1984, Vero
[3] = Selectivity index, ratio of CC50 for cytotoxicity against African green monkey Vero cells to EC50 for anti-viral activity against DENV-2 Thailand/16681/1984 strain; assay type: toxicity, cell-based; conditions: read-out: Selectivity Index
[4] = Solubility of the compound in phosphate-buffered saline solution (PBS,pH 7.4) incubated for 24 hrs by shake-flask method; assay type: physicochemical
[5] = Solubility of the compound in simulated intestinal fluid (SIF,pH 6.8) incubated for 24 hrs by shake-flask method; assay type: ADME
[6] = Solubility of the compound in simulated gastric fluid (SGF,pH 1.2) incubated for 24 hrs by shake-flask method; assay type: ADME

Row | Structure (SMILES) | CC50 at 72 h [1] [µM] | EC50 (Zika virus) [µM] | selectivity ratio [2] | EC50 (dengue virus type 2) [µM] | selectivity ratio [3] | solubility thermodynamic at 24 h [4] [µg/mL] | solubility thermodynamic at 24 h [5] [µg/mL] | solubility thermodynamic at 24 h [6] [µg/mL]
1 | CC1(C)CC(Nc2ncnc(Nc3ccc(-c4ccccc4)cc3)n2)CC(C)(C)N1 | 5.01 | – | – | – | – | – | – | –
2 | c1ccc(-c2ccc(Nc3nc(NCCN4CCCCC4)nc4ccsc34)cc2)cc1 | 7.5 | 4.1 | 1.83 | 8.15 | 0.92 | – | – | –
3 | CC1(C)CC(Nc2nc(Nc3ccc(-c4ccccc4)cc3)cc(C(F)(F)F)n2)CC(C)(C)N1 | 2.06 | – | – | – | – | – | – | –
4 | c1ccc(-c2ccc(Nc3ccnc(NCCN4CCCCC4)n3)cc2)cc1 | – | – | – | – | – | 32 (≈ 85.7 µM) | 324 (≈ 867 µM) | 108 (≈ 289 µM)
5 | Fc1ccc(CNc2cc(C(F)(F)F)nc(NCCN3CCCCC3)n2)cc1 | 47.6 | 16.8 | 2.84 | 16.1 | 2.96 | – | – | –
6 | Cc1ccc(CNc2cc(C(F)(F)F)nc(NCCN3CCCCC3)n2)cc1 | 49 | 13.5 | 3.63 | > 20 | < 2.5 | – | – | –
7 | Nc1ccc(-c2ccc(Nc3cc(C(F)(F)F)nc(NCCN4CCCCC4)n3)cc2)cc1 | 17.8 | > 10 | < 2 | > 10 | < 2 | – | – | –
8 | FC(F)(F)c1cc(Nc2ccc(C3CCCCC3)cc2)nc(NCCN2CCCCC2)n1 | 8.39 | – | – | – | – | – | – | –
9 | CC1(C)CC(Nc2nccc(Nc3ccc(-c4ccccc4)cc3)n2)CC(C)(C)N1 | – | – | – | – | – | 93 (≈ 232 µM) | 580 (≈ 1440 µM) | 2280 (≈ 5690 µM)
10 | CC1(C)CC(Nc2nccc(NCc3ccc(Cl)cc3)n2)CC(C)(C)N1 | 7.2 | 8.14 | 0.88 | 4.67 | 1.54 | – | – | –
11 | COc1ccc(CNc2cc(C(F)(F)F)nc(NCCN3CCCCC3)n2)cc1 | 38.2 | 12.5 | 3.07 | > 20 | < 2 | – | – | –
12 | FC(F)(F)c1cc(NCc2ccc(-c3ccccc3)cc2)nc(NCCN2CCCCC2)n1 | 36.9 | > 20 | < 2 | > 20 | < 2 | – | – | –

Source: ChEMBL document CHEMBL5500381, “Antiviral drug discovery: Pyrimidine entry inhibitors for Zika and dengue viruses” (Eur J Med Chem, 2024)
